The text below walks through data of ChEMBL document CHEMBL3507680, “University of Dundee, Gates Library screen for HepG2 cell viability”.

SMILES strings stand for the structures.

A short description of the data set: Human HepG2 cell viability assay in 384 well format. Type of data set: toxicity, cell-based. The arrangement: dose 125 nL, time 70.5 hour; cytotoxicity at 70.5 h: concentration not given beside the values. As to conditions: HepG2 cells, read-out: Inhibition.
Take `COc1ccccc1C1Cn2ccnc2CN1Cc1c[nH]nc1C` (stereo unspecified): the cytotoxicity at 70.5 h was -1.22%.

For the compound `Nc1nccnc1C1CN(Cc2ccc(OCC(=O)O)cc2)CCO1` (stereo unspecified), the cytotoxicity at 70.5 h was 0.531%.

With `NC(=O)c1ccccc1Oc1cnc(C2CCCN2)cn1` (stereo unspecified), the cytotoxicity at 70.5 h was -7.87%.

With `NCC(=O)N1CCC(c2cccc(Oc3ccccc3)n2)CC1`, the cytotoxicity at 70.5 h was -7.22%.

Take `Nc1nccc(C2CCN(CCO)C2)n1` (stereo unspecified): the cytotoxicity at 70.5 h was -21.4%.

On to `CN(C)c1nccc(C2CCN(C3CCCCC3O)CC2)n1` (stereo unspecified), for which the cytotoxicity at 70.5 h was found to be 21.1%.

With `COCC(=O)N1CCC(c2cc(-c3ccc(N)nc3)cc(C)n2)CC1`, the cytotoxicity at 70.5 h is 19.1%.

With `CNc1nc(C2CCCN(C(=O)CNC(C)=O)C2)nc2c1CN(C)CC2` (stereo unspecified), the cytotoxicity at 70.5 h came to 11.4%.

`CCN1CCCC(O)(c2nc(C)c(CCOc3ccccc3F)s2)CC1` (stereo unspecified): the cytotoxicity at 70.5 h is -8.35%.

`Cc1cc(C)n2ncc(CN3C[C@@H](O)[C@H](Oc4ccccc4)C3)c2n1`: the cytotoxicity at 70.5 h is -13.5%.

For the compound `Cc1nnc(Nc2cccc(C3CCN(Cc4ncc[nH]4)CC3)n2)s1`, the cytotoxicity at 70.5 h was found to be 18.8%.

In the case of `Cc1cc(C)nc(N2CCC(c3noc(C)n3)CC2)n1`, the cytotoxicity at 70.5 h is -7.52%.

Take `CN(C)c1cccc(C2CCCN2S(=O)(=O)c2cn(C)cn2)n1` (stereo unspecified): the cytotoxicity at 70.5 h was -8.98%.

Take `CC(=O)N1CCC[C@@H](NCc2ccc(F)cc2)[C@@H]1c1ccc(C)s1`: the cytotoxicity at 70.5 h was -8.87%.

Regarding `CC(C)Nc1cccc(CC2CCN(S(C)(=O)=O)CC2)n1`, the cytotoxicity at 70.5 h turned out to be 19.5%.

On to `Cc1nc(C2CN(Cc3scnc3C)CCO2)cc(N(C)C)n1` (stereo unspecified), for which the cytotoxicity at 70.5 h was 5.46%.

On to `CCOC(=O)c1n[nH]cc1-c1cncn1CC(C)n1nc(C)cc1C` (stereo unspecified), for which the cytotoxicity at 70.5 h was -8.74%.

As for `Cc1c[nH]nc1C1CCN(C(=O)Cn2cccn2)C1` (stereo unspecified), the cytotoxicity at 70.5 h was -7.3%.

Consider `Nc1cc(N2CCOCC(Cc3ccc4[nH]ccc4c3)C2)ncn1` (stereo unspecified), for which the cytotoxicity at 70.5 h was -0.988%.

For the compound `CC(=O)Nc1nc(C2CCCN(C(=O)CN(C)C)C2)cs1` (stereo unspecified), the cytotoxicity at 70.5 h was -9.21%.

On to `Nc1nccc(C2CCCCN2Cc2cccc(F)c2)n1` (stereo unspecified), for which the cytotoxicity at 70.5 h was -2.1%.

As to `CC(=O)N1CCN(CCCOc2ccccc2F)CC(C(N)=O)C1` (stereo unspecified), the cytotoxicity at 70.5 h was -13.8%.

On to `CN(C)c1cncc(C2CCCN2S(=O)(=O)c2cn(C)cn2)n1` (stereo unspecified), for which the cytotoxicity at 70.5 h was 14.9%.

Consider `CC1(C2CCN(CC(N)=O)CC2)CN(Cc2ccccc2)C(=O)O1` (stereo unspecified), for which the cytotoxicity at 70.5 h was -5.3%.

Consider `COc1cccc(CC(=O)NC(C)c2nc3cccnc3n2C(C)C)c1` (stereo unspecified), for which the cytotoxicity at 70.5 h was -2.69%.

Take `Cc1cnc(-c2nc(NC3CC3)ncc2-c2cc(C)no2)cn1`: the cytotoxicity at 70.5 h is 12%.

Turning to `CC(=O)N1CCn2c(nnc2C2CCCCN2C(C)=O)C1` (stereo unspecified), the cytotoxicity at 70.5 h was -4.85%.

Turning to `O=C(c1cnccn1)N1CCCC(Cc2cncc3ccccc23)C1` (stereo unspecified), the cytotoxicity at 70.5 h was -6.77%.

For the compound `Cc1csc(NC(=O)c2cnc(C3CCCN(C)C3)cn2)n1` (stereo unspecified), the cytotoxicity at 70.5 h was -8.15%.

On to `Cc1ncccc1Oc1cncc(C2CCCN2Cc2cncn2C)n1` (stereo unspecified), for which the cytotoxicity at 70.5 h is -2.83%.

For `CCc1nccn1-c1cncc(C2CCN(C(=O)COC)CC2)n1`, the cytotoxicity at 70.5 h is -6.24%.

Turning to `O=C(c1cccnc1)N1CCCC1c1cc[nH]n1` (stereo unspecified), the cytotoxicity at 70.5 h came out at 23.9%.

For the compound `CNc1cccc(C2CCCN(Cc3ncc[nH]3)C2)n1` (stereo unspecified), the cytotoxicity at 70.5 h is -2.87%.

With `CCc1nccn1-c1nccnc1C1CCCN(C(=O)COC)C1` (stereo unspecified), the cytotoxicity at 70.5 h was -6.06%.

As for `CCn1cc(CN2CCN(CC(O)c3cc(C)ccc3C)CC2)c(C)n1` (stereo unspecified), the cytotoxicity at 70.5 h was -1.03%.

`CCCNC(=O)c1cc(C2CCCN(Cc3ccccn3)C2)no1` (stereo unspecified): the cytotoxicity at 70.5 h is 21.2%.

As to `O=C(c1cc(C2CCCN(Cc3ccccn3)C2)no1)N1CCCC1` (stereo unspecified), the cytotoxicity at 70.5 h was -1.56%.

Turning to `CCn1cc(CN2CCN(CC(O)c3ccc(C)cc3C)CC2)c(C)n1` (stereo unspecified), the cytotoxicity at 70.5 h was -6.8%.

Turning to `Cc1cc(-c2cnc(C3CC3)nc2CN(C)C(=O)c2ccccn2)on1`, the cytotoxicity at 70.5 h was -2.22%.

As to `O=C1NC[C@]2(CC[C@@H](C(=O)N3CCC(O)CC3)CC2)Oc2ccccc21`, the cytotoxicity at 70.5 h was -4.51%.

On to `O=C1CN(C(=O)[C@H]2CC[C@]3(CC2)CNC(=O)c2ccccc2O3)CCN1`, for which the cytotoxicity at 70.5 h is -8.28%.

Take `Cn1ncc(Cl)c1C(=O)N1CCc2nc3sccc3c(=O)n2CC1`: the cytotoxicity at 70.5 h came to 33.8%.

Turning to `O=C(Cn1c(C(F)F)cc2cccnc21)NC1CCCC1`, the cytotoxicity at 70.5 h was -2.74%.

`CCN1CCCC(NC(=O)CCn2c(C(F)F)cc3cccnc32)C1` (stereo unspecified): the cytotoxicity at 70.5 h is -4.62%.

As for `CCn1ncc(S(=O)(=O)NC2(CN3CCOCC3)CCCCC2)c1C`, the cytotoxicity at 70.5 h is -4.76%.

In the case of `O=C(CCn1c(C(F)F)cc2cccnc21)NC1CCCC1`, the cytotoxicity at 70.5 h was -6.41%.

`Cc1cc(-c2cnc(C)nc2CN(C)C(=O)c2ccccn2)on1`: the cytotoxicity at 70.5 h was -3.87%.

In the case of `CC(C)(C)NC(=O)C1(Cc2ccccc2-c2ccncc2)CCOCC1`, the cytotoxicity at 70.5 h was found to be 27.7%.

For the compound `CC1CCc2n[nH]c(C(=O)NCCCc3ccco3)c2C1` (stereo unspecified), the cytotoxicity at 70.5 h is -2.37%.

With `CC1CCc2n[nH]c(C(=O)NCCCc3ccccn3)c2C1` (stereo unspecified), the cytotoxicity at 70.5 h was -7.91%.

As to `Cc1cc(C)n(CC(C)NC(=O)C2(c3ccc(F)cc3)CC2)n1` (stereo unspecified), the cytotoxicity at 70.5 h was -10.8%.

As for `CC1(C)COCCN1C(=O)CCc1nc(-c2ccncc2)no1`, the cytotoxicity at 70.5 h came out at 4.51%.

Turning to `OC1CCN(c2nc(-c3ccccc3)no2)CC1`, the cytotoxicity at 70.5 h was -11.6%.

For the compound `Cc1cc(C)n(CC(C)NC(=O)C(C)(C)c2ccccc2F)n1` (stereo unspecified), the cytotoxicity at 70.5 h was found to be 6.99%.

For `Cc1nc2cc(F)ccc2cc1C(=O)N1CCN(CC(C)O)CC1` (stereo unspecified), the cytotoxicity at 70.5 h is -9.69%.

Regarding `Cc1nc2cc(F)cc(C(=O)N3CCN(CC(C)O)CC3)c2nc1C` (stereo unspecified), the cytotoxicity at 70.5 h was -9.3%.

In the case of `O=C(c1ccccn1)N1CCN(C(c2ccccc2)C(F)(F)F)CC1` (stereo unspecified), the cytotoxicity at 70.5 h was 11.9%.

As for `O=C(c1cc[nH]n1)N1CCN(C(c2ccccc2)C(F)(F)F)CC1` (stereo unspecified), the cytotoxicity at 70.5 h was -8.27%.

`CCc1ccc(C(NC(=O)CCS(C)(=O)=O)C(C)(C)C)o1` (stereo unspecified): the cytotoxicity at 70.5 h is -8.82%.

For the compound `O=C(NC1CCc2nccn2C1)c1ccc(OCC2CC2)nc1` (stereo unspecified), the cytotoxicity at 70.5 h was -7.7%.

Regarding `CCSCCC(C)NC(=O)Nc1cccn(C)c1=O` (stereo unspecified), the cytotoxicity at 70.5 h is -10%.

Take `Cc1nc2cc(F)cc(C(=O)N3CCN(CCO)CC3)c2nc1C`: the cytotoxicity at 70.5 h is -5.18%.

Regarding `Cc1ccc(S(=O)(=O)N(C)Cc2nccs2)cc1N(C)C`, the cytotoxicity at 70.5 h came to 6.76%.

For the compound `c1ccc(-c2nnc3n2CCN(c2nc(C4CC4)ns2)C3)cc1`, the cytotoxicity at 70.5 h was -8%.

For `CCc1nsc(N2CCn3c(nnc3-c3ccccc3)C2)n1`, the cytotoxicity at 70.5 h was -4.9%.

For `N#Cc1cc(F)ccc1NCc1ccc(Cn2cncn2)cc1`, the cytotoxicity at 70.5 h was -3.41%.

Regarding `COc1ccc(-c2noc(CCC(=O)N3CCOCC3(C)C)n2)cc1`, the cytotoxicity at 70.5 h was -3.78%.

On to `CCC(C)(C)NC(=O)c1scnc1Cl`, for which the cytotoxicity at 70.5 h amounted to 12.7%.

As to `CCc1noc(C)c1C(=O)NCCCC(CC)(CC)C1OCCO1`, the cytotoxicity at 70.5 h is -5.2%.

Consider `CCc1ccc(C(NC(=O)CN(C)S(C)(=O)=O)C(C)(C)C)o1` (stereo unspecified), for which the cytotoxicity at 70.5 h is -7.8%.

Regarding `FC(F)(F)CCN(Cc1ccon1)C1CCC1`, the cytotoxicity at 70.5 h was -7.34%.

On to `COc1ccccc1CC(C)N(C)CCS(C)(=O)=O` (stereo unspecified), for which the cytotoxicity at 70.5 h is -14.1%.

For the compound `CCCC(=O)N(C)Cc1cccc(OC(C)C)c1`, the cytotoxicity at 70.5 h worked out at 9.69%.

On to `CN(Cc1cccc(OC(F)(F)F)c1)C(=O)Cc1ccon1`, for which the cytotoxicity at 70.5 h is -13.6%.

For `CNS(=O)(=O)c1cccc(CNCc2ccsc2)c1`, the cytotoxicity at 70.5 h is -1.74%.

As to `CCCc1c(C(=O)N2CCN(c3nccc(OC)n3)CC2)cnn1C`, the cytotoxicity at 70.5 h is -5.72%.

Turning to `COCC(C)N1CCN(CCc2ccc3c(c2)CCO3)CC1` (stereo unspecified), the cytotoxicity at 70.5 h came to 21.8%.

As to `O=C(NCC(F)(F)F)c1ccncc1`, the cytotoxicity at 70.5 h came out at 12.7%.

In the case of `O=C(COCCOc1ccccc1)NC1CCN(c2ccccn2)CC1`, the cytotoxicity at 70.5 h was -12.1%.

As for `CC(C)(C)C(=O)NCC(=O)Nc1cccnc1`, the cytotoxicity at 70.5 h was -6.42%.

Regarding `Cn1nc(C(=O)NC2(c3ccc(Cl)cc3)CCCC2)ccc1=O`, the cytotoxicity at 70.5 h turned out to be 24.7%.

Take `CCc1nnc2n1CCN(C(C(=O)NC1CC1)c1ccc(F)cc1)C2` (stereo unspecified): the cytotoxicity at 70.5 h was -15.2%.

With `CCc1nnc2n1CCN(C(C(=O)N(CC)CC)c1ccccc1)C2` (stereo unspecified), the cytotoxicity at 70.5 h was -12.7%.

On to `COc1ccc(CNC(=O)c2ccoc2CN2CCNC(=O)C2)cc1`, for which the cytotoxicity at 70.5 h came to 22.4%.

`CC1Oc2c(cccc2C(=O)N2CCN(CC(C)(C)O)CC2)NC1=O` (stereo unspecified): the cytotoxicity at 70.5 h was -10.7%.

On to `CCC(O)CN1CCN(C(=O)c2cccc3c2OCC(=O)N3)CC1` (stereo unspecified), for which the cytotoxicity at 70.5 h is 27.7%.

As for `O=C(Cc1ccc(-n2cnnn2)cc1)Nc1cnn(CC(F)F)c1`, the cytotoxicity at 70.5 h is -15.7%.

With `CSCC(CCO)Nc1nc(C(F)F)nc2ccccc12` (stereo unspecified), the cytotoxicity at 70.5 h is -7.1%.

As for `O=C(O)CCc1ccc(S(=O)(=O)Nc2cnn(CC(F)(F)F)c2)cc1`, the cytotoxicity at 70.5 h was -5.48%.

Regarding `CC(C)NC1CCN(CCc2ccc3c(c2)CCO3)CC1`, the cytotoxicity at 70.5 h was 9.93%.

`CC(=O)Nc1nc(CNc2ccccc2CCC(F)(F)F)cs1`: the cytotoxicity at 70.5 h is -12%.

As for `CC(C)n1nnnc1-c1ccc(NC(=O)C(C)(C)C#N)cc1F`, the cytotoxicity at 70.5 h was 4.99%.

Take `CCC(CO)Nc1nc(C(F)F)nc2ccccc12` (stereo unspecified): the cytotoxicity at 70.5 h was -11.3%.

In the case of `Cc1ccccc1-n1nccc1NC(=O)CCOC(C)C`, the cytotoxicity at 70.5 h was found to be 11.4%.

`CCOCCOC(C)C(=O)Nc1ccnn1-c1ccccc1C` (stereo unspecified): the cytotoxicity at 70.5 h was -4.2%.

For `CCc1ncc(CN[C@@H]2CCCN(C(C)=O)[C@H]2c2ccc(C)s2)cn1`, the cytotoxicity at 70.5 h was -6.59%.

For `Cc1csc(NC(=O)c2cnc(C3CCCN3)cn2)n1` (stereo unspecified), the cytotoxicity at 70.5 h is -13.1%.

Take `Cc1csc(NC(=O)c2cnc(C3CCNCC3)cn2)n1`: the cytotoxicity at 70.5 h is -11.9%.

Regarding `CN(C)c1ncc(C2Nc3cc(Cl)ccc3C3=NCCCN32)cn1` (stereo unspecified), the cytotoxicity at 70.5 h is -5.74%.

As to `CC(C)Nc1nc(O)cc(C2CC(=O)N(Cc3ccccn3)C2)n1` (stereo unspecified), the cytotoxicity at 70.5 h was -5.33%.

For the compound `CC(C)Nc1cccc(CC2CCN(C)C2)n1` (stereo unspecified), the cytotoxicity at 70.5 h was -5.89%.
